Experimental data reported in patent publication US9714243B2, “4-pyridinonetriazine derivatives as HIV integrase inhibitors” (Merck Sharp & Dohme Corp., priority 2012, dated 2017).
Like-named read-outs stand apart in the source and are kept apart here.

System: HIV-1 (NL4-3 strain)
Assay: Assay for inhibition of HIV replication (ViKinG; infected MT4-GFP cells)
Format: cell-based
Procedure, shortened: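 MT4-GFP cells infected with NL4-3 at low MOI for 24 h, washed, then exposed to serially diluted compound (0.4% DMSO) in RPMI. GFP+ cells counted at 24 and 48 h; R0 = 48 h/24 h ratio, inhibition normalised to DMSO and triple-drug controls, IC50 from 4-parameter fit.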

[1] = Human immunodeficiency virus 1, NL43, MT4-GFP cells infected with HIV-1 NL4-3, 0% normal human serum (NHS), read-out: ViKinG IP (nM) with 0% NHS
[2] = Human immunodeficiency virus 1, NL43, MT4-GFP cells infected with HIV-1 NL4-3, 100% normal human serum (NHS), read-out: ViKinG IP (nM) with 100% NHS
[3] = Human immunodeficiency virus 1, NL43, MT4-GFP cells infected with HIV-1 NL4-3, 10% normal human serum (NHS), read-out: ViKinG IP (nM) with 10% NHS
[4] = MT4-GFP cells infected with HIV-1 NL4-3, 0% normal human serum (NHS), read-out: ViKinG IP (nM) with 0% NHS
[5] = MT4-GFP cells infected with HIV-1 NL4-3, 10% normal human serum (NHS), read-out: ViKinG IP (nM) with 10% NHS
[6] = MT4-GFP cells infected with HIV-1 NL4-3, 100% normal human serum (NHS), read-out: ViKinG IP (nM) with 100% NHS

| SMILES | IC50 [1] | IC50 [2] | IC50 [4] | further results |
| --- | --- | --- | --- | --- |
| CN1C(=O)c2c(O)c(=O)c(C(=O)NCc3ccc(F)cc3F)cn2CC12CC2 [Compound 174] | 2.87 nM | 125 nM | – | – |
| CCN1C(=O)c2c(O)c(=O)c(-c3nnc(Cc4ccc(F)cc4F)s3)cn2N(C)C1c1ccc(F)c(OC)c1 (racemic) [Compound 48] | 19.6 nM | 416 nM | – | – |
| CCN1C(=O)c2c(O)c(=O)c(-c3nnc(Cc4ccc(F)cc4F)s3)cn2N(C)C1CC(C)O (stereo not shown) [Compound 41] | 3.15 nM | – | – | IC50 [3]: 73.2 nM |
| CCN1C(=O)c2c(O)c(=O)c(C(=O)NCc3ccc(F)cc3F)cn2N(C)[C@@]12CC[C@@H]1C[C@@H]12 [Compound 189] | 3.62 nM | 626 nM | – | – |
| CN(C(=O)C1CCC2(CC1)N(C)C(=O)c1c(O)c(=O)c(-c3nnc(Cc4ccc(F)cc4F)s3)cn1N2C)C1CC1 (stereo not shown) [Compound 109] | – | – | 12.1 nM | IC50 [3]: 18.2 nM |
| CN(C(=O)C1CCC2(CC1)N(C)C(=O)c1c(O)c(=O)c(-c3nnc(Cc4ccc(F)cc4F)s3)cn1N2C)C1CC1 (stereo not shown) [Compound 110] | – | – | 5.82 nM | IC50 [5]: 10.7 nM |
| CN(CCNC(=O)C1CCC2(CC1)N(C)C(=O)c1c(O)c(=O)c(-c3nnc(Cc4ccc(F)cc4F)s3)cn1N2C)C(=O)OC(C)(C)C (stereo not shown) [Compound 139] | 54.3 nM | – | – | IC50 [5]: 186 nM |
| CN1C(=O)c2c(O)c(=O)c(-c3nnc(Cc4ccc(F)cc4F)s3)cn2N(C)C12CCC(C)(O)CC2 (stereo not shown) [Compound 70] | – | – | 9.9 nM | IC50 [5]: 39.1 nM |
| CCN1C(=O)c2c(O)c(=O)c(-c3nnc(Cc4ccc(F)cc4F)s3)cn2N(C)C12CCCCC(O)C2 (stereo not shown) [Compound 45] | 4.07 nM | 122 nM | – | – |
| CCN1C(=O)c2c(O)c(=O)c(-c3cn(Cc4ccc(F)cc4F)nn3)cn2CC12CCC2 [Compound 216] | 13.2 nM | 332 nM | – | – |
| CCN1C(=O)c2c(O)c(=O)c(-c3nnc(Cc4ccc(F)cc4F)s3)cn2N(C)C12CCC(C(=O)N(C)C)CC2 (stereo not shown) [Compound 101] | – | – | – | IC50 [5]: 37.5 nM |
| CN1C(=O)c2c(O)c(=O)c(C(=O)NCc3ccc(F)cc3F)cn2N(C)[C@]12CC[C@@H]1C[C@@H]12 [Compound 186] | 1.74 nM | 283 nM | – | – |
| CCCOC1CCC2(CC1)N(CC)C(=O)c1c(O)c(=O)c(-c3nnc(Cc4ccc(F)cc4F)s3)cn1N2C (stereo not shown) [Compound 60] | – | 226 nM | 10.8 nM | – |
| CCCOC1CCC2(CC1)N(CC)C(=O)c1c(O)c(=O)c(C(=O)NCc3ccc(F)cc3F)cn1N2C (stereo not shown) [Compound 194] | – | – | 25 nM | IC50 [6]: 400 nM |
| CCc1noc(C2CCC3(CC2)N(CC)C(=O)c2c(O)c(=O)c(-c4nnc(Cc5ccc(F)cc5F)s4)cn2N3C)n1 (stereo not shown) [Compound 58] | – | – | 14.1 nM | IC50 [6]: 228 nM |
| CCN1C(=O)c2c(O)c(=O)c(-c3nnc(Cc4ccc(F)cc4F)s3)cn2N(C)C1CC(C)=O (racemic) [Compound 40] | 2.53 nM | – | – | IC50 [3]: 374 nM |
| CN1C2C(O)CCCN2C(=O)c2c(O)c(=O)c(-c3nnc(Cc4ccc(F)cc4F)s3)cn21 (stereo not shown) [Compound 166] | – | – | 9 nM | IC50 [6]: 162 nM |
| CCN1C(=O)c2c(O)c(=O)c(-c3nnc(Cc4ccc(F)cc4F)s3)cn2N(C)C12CCC1(CCC(=O)N1)CC2 (stereo not shown) [Compound 22] | – | – | – | IC50 [3]: 292 nM |
| CN1C2C(O)CCCN2C(=O)c2c(O)c(=O)c(-c3nnc(Cc4ccc(F)cc4F)s3)cn21 (stereo not shown) [Compound 167] | – | – | 2.52 nM | IC50 [6]: 41.9 nM |
| CN1C(=O)c2c(O)c(=O)c(-c3nnc(Cc4ccc(F)cc4F)s3)cn2N(C)C12CCC(C)(CO)CC2 (stereo not shown) [Compound 85] | 12.5 nM | 150 nM | – | IC50 [5]: 29.5 nM |
| CN1C2COCCN2C(=O)c2c(O)c(=O)c(-c3nnc(Cc4ccc(F)cc4)s3)cn21 (stereo not shown) [Compound 162] | – | – | – | IC50 [5]: 10.8 nM; IC50 [6]: 186 nM |
| CCN1C(=O)c2c(O)c(=O)c(-c3nnc(Cc4ccc(F)cc4)s3)cn2N(C)C12CCC(C(=O)NC1CC1)CC2 (stereo not shown) [Compound 96] | 8.63 nM | 171 nM | – | IC50 [3]: 16.2 nM |

| SMILES | IC50 [1] | IC50 [2] | IC50 [4] | further results |
| --- | --- | --- | --- | --- |
| CN1C(=O)c2c(O)c(=O)c(-c3nnc(Cc4ccc(F)cc4F)s3)cn2N(C)C12CCC(C(=O)NCC(F)(F)F)CC2 (stereo not shown) [Compound 112] | – | – | 3.36 nM | IC50 [5]: 11.1 nM |
| CCN1C(=O)c2c(O)c(=O)c(-c3nnc(Cc4ccc(F)cc4)s3)cn2N(C)C12CCCCC2 [Compound 222] | 1.28 nM | – | – | – |
| CCN1C(=O)c2c(O)c(=O)c(-c3nnc(Cc4ccc(F)cc4)s3)cn2N(C)C12CCC(CC(=O)N(C)C)C2 (stereo not shown) [Compound 99] | – | 122 nM | – | IC50 [3]: 34.9 nM |
| COCCNC(=O)C1CCC2(CC1)N(C)C(=O)c1c(O)c(=O)c(-c3nnc(Cc4ccc(F)cc4F)s3)cn1N2C (stereo not shown) [Compound 122] | – | – | 5.51 nM | IC50 [5]: 18.4 nM |
| CCN1C(=O)c2c(O)c(=O)c(-c3nnc(Cc4ccc(F)cc4F)s3)cn2N(C)C12CCC(C(=O)N(C)CC(F)(F)F)CC2 (stereo not shown) [Compound 103] | – | – | 6.88 nM | IC50 [6]: 143 nM |
| COCCN1C(=O)c2c(O)c(=O)c(C(=O)NCc3ccc(F)cc3F)cn2CC12CCC2 [Compound 177] | 5.03 nM | 4790 nM | – | – |
| CCN1C(=O)c2c(O)c(=O)c(-c3nnc(Cc4ccc(F)cc4F)s3)cn2N(C)C12CCC(C(=O)N(C)C)CC2 (stereo not shown) [Compound 100] | 7.51 nM | 111 nM | – | IC50 [5]: 6.47 nM |
| CCN1C(=O)c2c(O)c(=O)c(-c3nnc(Cc4ccc(F)cc4F)s3)cn2N(C)C12CCC(OCCOC)CC2 (stereo not shown) [Compound 65] | – | – | 6.27 nM | IC50 [6]: 123 nM |
| CN1C(=O)c2c(O)c(=O)c(-c3nnc(Cc4ccc(F)cc4F)s3)cn2N(C)C12CCC(N)CC2 (stereo not shown) [Compound 75] | 5.02 nM | – | – | IC50 [3]: 35.3 nM |
| CN1C(=O)c2c(O)c(=O)c(-c3nnc(Cc4ccc(F)cc4F)s3)cn2N(C)C12CCC(C(=O)NCc1cncs1)CC2 (stereo not shown) [Compound 134] | – | – | 20.9 nM | IC50 [5]: 122 nM |
| CCN1C(=O)c2c(O)c(=O)c(-c3nnc(Cc4ccc(F)cc4)s3)cn2N(C)C1c1ccn[nH]1 (stereo not shown) [Compound 6] | – | 357 nM | – | IC50 [3]: 30.8 nM |
| CCN1C(=O)c2c(O)c(=O)c(-c3nnc(Cc4ccc(F)cc4F)s3)cn2N(C)C12CCC(OCCOC)CC2 (stereo not shown) [Compound 64] | 3.3 nM | 77.2 nM | – | – |
| CN1C(=O)c2c(O)c(=O)c(-c3nnc(Cc4ccc(F)cc4F)s3)cn2N(C)C12CCC1C(=O)NC(=O)C1C2 (stereo not shown) [Compound 81] | – | – | 37.5 nM | IC50 [6]: 1610 nM |
| CN1C(=O)c2c(O)c(=O)c(-c3nnc(Cc4ccc(F)cc4F)s3)cn2N(C)C12CC[C@@H]1C[C@@]12CO (mixture of isomers) [Compound 200] | – | – | 2.04 nM | IC50 [6]: 66.7 nM |
| CN1C(=O)c2c(O)c(=O)c(-c3nnc(Cc4ccc(F)cc4F)s3)cn2N(C)C12CCC(C(N)=O)CC2 (stereo not shown) [Compound 106] | – | – | 186 nM | IC50 [5]: 812 nM |
| COCCN1C(=O)c2c(O)c(=O)c(C(=O)NCc3ccc(F)c(F)c3F)cn2[C@@H](C)C12CC2 [Compound 185] | 2.2 nM | 212 nM | – | – |
| COC1CCC2(CC1)Cn1cc(C(=O)NCc3ccc(F)cc3F)c(=O)c(O)c1C(=O)N2C (stereo not shown) [Compound 181] | 2.48 nM | 28.9 nM | – | – |
| CCN1C(=O)c2c(O)c(=O)c(-c3nnc(Cc4ccc(F)cc4F)s3)cn2N(C)C12CCC(O)CC2 (stereo not shown) [Compound 52] | – | – | 2.33 nM | IC50 [6]: 130 nM |
| CN1C(=O)c2c(O)c(=O)c(-c3nnc(Cc4ccc(F)cc4F)s3)cn2N(C)C12CCCCCC2 [Compound 76] | 17.3 nM | 761 nM | – | IC50 [3]: 23.6 nM |
| COC(=O)[C@@]12C[C@@H]1CCC21N(C)C(=O)c2c(O)c(=O)c(-c3nnc(Cc4ccc(F)cc4F)s3)cn2N1C (mixture of isomers) [Compound 199] | 5.42 nM | 202 nM | – | IC50 [3]: 13.9 nM |
| CCN1C(=O)c2c(O)c(=O)c(-c3nnc(Cc4ccc(F)cc4F)s3)cn2N(C)C1C1(C)CC1 (racemic) [Compound 17] | – | 4070 nM | – | IC50 [3]: 138 nM |
